Assays:
Assay type in all cases: cell-based
Gaeumannomyces graminis = Gaeumannomyces graminis / liquid culture (take-all of cereals); conditions: growth inhibition photometrically 4-5 days after application, compared to untreated control
Method: 6. Gaeumannomyces Graminis/Liquid Culture (Take-all of Cereals) Mycelial fragments of the fungus from cryogenic storage were directly mixed into nutrient broth (PDB potato dextrose broth). After placing a (DMSO) solution of test compound into a microtiter plate (96-well format), the nutrient broth containing the fungal spores is added. The test plates are incubated at 24° C. and the inhibition of growth is determined photometrically 4-5 days after application.

[1] = tested on: Glomerella lagenarium (Colletotrichum lagenarium); experiment: Glomerella lagenarium (Colletotrichum lagenarium) / liquid culture (anthracnose); conditions: Colletotrichum orbiculare, growth inhibition photometrically 3-4 days after application, compared to untreated control
Method: 3. Glomerella lagenarium (Colletotrichum lagenarium)/Liquid Culture (Anthracnose) Conidia of the fungus from cryogenic storage are directly mixed into nutrient broth (PDB potato dextrose broth). After placing a (DMSO) solution of test compound into a microtiter plate (96-well format), the nutrient broth containing the fungal spores is added. The test plates are incubated at 24° C. and the inhibition of growth is measured photometrically 3-4 days after application.

[2] = tested on: Mycosphaerella graminicola (Septoria tritici); experiment: Mycosphaerella graminicola (Septoria tritici) / liquid culture (Septoria blotch); conditions: Zymoseptoria tritici, growth inhibition photometrically 4-5 days after application, compared to untreated control
Method: 18. Mycosphaerella graminicola (Septoria tritici)/Liquid Culture (Septoria Blotch) Conidia of the fungus from cryogenic storage are directly mixed into nutrient broth (PDB potato dextrose broth). After placing a (DMSO) solution of test compound into a microtiter plate (96-well format), the nutrient broth containing the fungal spores is added. The test plates are incubated at 24° C. and the inhibition of growth is determined photometrically 4-5 days after application.

[3] = tested on: Monographella nivalis (Microdochium nivale); experiment: Monographella nivalis (Microdochium nivale) / liquid culture (foot rot cereals); conditions: growth inhibition photometrically 4-5 days after application, compared to untreated control
Method: 8. Monographella nivalis (Microdochium nivale)/Liquid Culture (Foot Rot Cereals) Conidia of the fungus from cryogenic storage are directly mixed into nutrient broth (PDB potato dextrose broth). After placing a (DMSO) solution of test compound into a microtiter plate (96-well format), the nutrient broth containing the fungal spores is added. The test plates are incubated at 24° C. and the inhibition of growth is determined photometrically 4-5 days after application.

Pythium ultimum = Pythium ultimum / liquid culture (seedling damping off); conditions: Globisporangium ultimum, growth inhibition photometrically 2-3 days after application, compared to untreated control
Outline: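 Fungal mycelia fragments and oospores from fresh liquid culture mixed into potato dextrose broth and added to DMSO solutions of test compound. Incubated at 24° C.; growth inhibition read photometrically 2-3 days after application.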

[4] = tested on: Thanatephorus cucumeris (Rhizoctonia solani); experiment: Thanatephorus cucumeris (Rhizoctonia solani) / liquid culture (foot rot, damping-off); conditions: growth inhibition photometrically 3-4 days after application, compared to untreated control
Method: 16. Thanatephorus cucumeris (Rhizoctonia solani)/Liquid Culture (Foot Rot, Damping-Off) Mycelia fragments of a newly grown liquid culture of the fungus are directly mixed into nutrient broth (PDB potato dextrose broth). After placing a (DMSO) solution of the test compounds into a microtiter plate (96-well format), the nutrient broth containing the fungal material is added. The test plates are incubated at 24° C. and the inhibition of growth is determined photometrically 3-4 days after application.

Measured: inhibition of growth at 20 ppm

COc1c(C(=O)OCC2CC2C)ccc2c1B(O)OC2 (stereo not shown) [Compound 118, (2-methylcyclopropyl)methyl 1-hydroxy-7-methoxy-3H-2,1-benzoxaborole-6-carboxylate]
not listed: [4]
≥ 80%: all other assays above

COc1cccc(C#CCOC(=O)c2ccc3c(c2OC)B(O)OC3)c1 [Compound 107, 3-(3-methoxyphenyl)prop-2-ynyl 1-hydroxy-7-methoxy-3H-2,1-benzoxaborole-6-carboxylate]
≥ 80%: all assays above

COc1c(C(=O)OCCc2ccccc2F)ccc2c1B(O)OC2 [Compound 124, 2-(2-fluorophenyl)ethyl 1-hydroxy-7-methoxy-3H-2,1-benzoxaborole-6-carboxylate]
≥ 80%: all assays above

COc1c(C(=O)OC(C)c2cccc(Cl)c2)ccc2c1B(O)OC2 (stereo not shown) [Compound 83, 1-(3-chlorophenyl)ethyl 1-hydroxy-7-methoxy-3H-2,1-benzoxaborole-6-carboxylate]
≥ 80%: all assays above

COc1ccc(COC(=O)c2ccc3c(c2OC)B(O)OC3)cc1 [Compound 127, (4-methoxyphenyl)methyl 1-hydroxy-7-methoxy-3H-2,1-benzoxaborole-6-carboxylate]
≥ 80%: Gaeumannomyces graminis | [1] | [3] | Pythium ultimum

CCOC(=O)COC(=O)c1ccc2c(c1OC)B(O)OC2 [Compound 111, (2-ethoxy-2-oxo-ethyl) 1-hydroxy-7-methoxy-3H-2,1-benzoxaborole-6-carboxylate]
not listed: [2]
≥ 80%: all other assays above

COc1c(C(=O)OC(C)CCc2ccccc2)ccc2c1B(O)OC2 (stereo not shown) [Compound 130, (1-methyl-3-phenyl-propyl) 1-hydroxy-7-methoxy-3H-2,1-benzoxaborole-6-carboxylate]
≥ 80%: all assays above

COc1c(C(=O)OC2CC=CC2)ccc2c1B(O)OC2 [Compound 104, cyclopent-3-en-1-yl 1-hydroxy-7-methoxy-3H-2,1-benzoxaborole-6-carboxylate]
not listed: [4]
≥ 80%: all other assays above

COc1c(C(=O)OCCOc2ccccc2C)ccc2c1B(O)OC2 [Compound 82, 2-(2-methylphenoxy)ethyl 1-hydroxy-7-methoxy-3H-2,1-benzoxaborole-6-carboxylate]
not listed: [4]
≥ 80%: all other assays above

COc1c(C(=O)OC(CC(F)(F)F)c2ccccc2)ccc2c1B(O)OC2 (stereo not shown) [Compound 89, (3,3,3-trifluoro-1-phenyl-propyl) 1-hydroxy-7-methoxy-3H-2,1-benzoxaborole-6-carboxylate]
not listed: [2]
≥ 80%: all other assays above

COc1c(C(=O)OCC2SCCS2)ccc2c1B(O)OC2 [Compound 100, 1,3-dithiolan-2-ylmethyl 1-hydroxy-7-methoxy-3H-2,1-benzoxaborole-6-carboxylate]
not listed: [2]
≥ 80%: all other assays above

COc1c(C(=O)OCc2ccccc2)ccc2c1B(O)OC2 [Compound 85, benzyl 1-hydroxy-7-methoxy-3H-2,1-benzoxaborole-6-carboxylate]
≥ 80%: all assays above

COc1c(C(=O)OCC(C)(C)Cc2ccccc2)ccc2c1B(O)OC2 [Compound 117, (2,2-dimethyl-3-phenyl-propyl) 1-hydroxy-7-methoxy-3H-2,1-benzoxaborole-6-carboxylate]
not listed: Pythium ultimum
≥ 80%: all other assays above

COc1c(C(=O)OCCC(C)C)ccc2c1B(O)OC2 [Compound 129, isopentyl 1-hydroxy-7-methoxy-3H-2,1-benzoxaborole-6-carboxylate]
not listed: [4]
≥ 80%: all other assays above

COc1c(C(=O)OCC(F)(F)F)ccc2c1B(O)OC2 [Compound 10, 2,2,2-trifluoroethyl 1-hydroxy-7-methoxy-3H-2,1-benzoxaborole-6-carboxylate]
not listed: [4]
≥ 80%: all other assays above

From US20180244699A1, “1-HYDROXY-3H-2,1-BENZOXABOROLE DERIVATIVES AND THEIR USE AS MICROBIOCIDES” (Syngenta Participations AG, priority 2015, published 2018)
